# From patent US4081548A, “Antibiotics” (Merck & Co., Inc., priority 1976, dated 1978)
# Assays:
# [1] = Hydroxylamine-Extinguishable Absorbance; type: physicochemical; details: pure thienamycin; 10 mM. hydroxylamine, pH 7.0, room temperature, at least 30 min., 297 nm
# Experimental: The proportion of absorbance measured at 297 nm which can be attributed to the antibiotic content in impure samples is determined by the selective extinction of this absorbance (with concommitant inactivation of antibiotic activity) upon reaction with dilute hydroxylamine.
# Samples are prepared in 0.01M potassium phosphate buffer at pH 7.0 to have an initial A297 between 0.05 and 2.0. Freshly prepared, neutral hydroxylamine (NH2 OH.HCl plus NaOH to a final pH of 7) is added to a final concentration of 10 mM., and reaction is allowed to progress at room temperature for at least 30 min. The resulting A297 when substracted from the initial reading (after correction for dilution by added reagent) yields the hydroxylamine-extinguishable absorbance. Solutions of pure thienamycin show a hydroxylamine-extinguishable absorbance of 94.5%.
# inactivation by cysteine = type: physicochemical; details: cysteine 4 μmoles per ml., pH 7.0, 20° C.
# Serratia 2840 = assay: agar dilution method, Table 2; type: cell-based; details: Mueller-Hinton agar, 18 hours, 37° C., strain resistance: P, read-out: Minimum Inhibitory Concentration
# Experimental: (§1) A further evaluation of substantially pure antibiotic employed the agar dilution method. An inoculum of 2 × 10^4 to 1 × 10^5 organisms is applied as a 0.002 ml. droplet to the surface of Mueller-Hinton agar containing serial, twofold dilutions of antibiotic over the range 0.01 to 73 μg./ml. The results (Table 2) are reported as the minimum inhibitory concentration, in μg./ml., that being the lowest antibiotic concentration at which the growth of the test organism is inhibited over a period of 18 hours at 37° C.
# [2] = tested on: Staphylococcus aureus 2314; assay: agar dilution method, Table 2; type: cell-based; details: Mueller-Hinton agar, 18 hours, 37° C., strain resistance: P, read-out: Minimum Inhibitory Concentration
# Experimental: as §1
# [3] = tested on: Pseudomonas aeruginosa 2824; assay: agar dilution method, Table 2; type: cell-based; details: Mueller-Hinton agar, 18 hours, 37° C., strain resistance: P, read-out: Minimum Inhibitory Concentration
# Experimental: as §1
# Escherichia coli 2964 = assay: agar dilution method, Table 2; type: cell-based; details: Mueller-Hinton agar, 18 hours, 37° C., strain resistance: P, read-out: Minimum Inhibitory Concentration
# Experimental: as §1
# Escherichia coli 2482 = assay: agar dilution method, Table 2; type: cell-based; details: Mueller-Hinton agar, 18 hours, 37° C., strain resistance: --, read-out: Minimum Inhibitory Concentration
# Experimental: as §1
# Klebsiella 2921 = assay: agar dilution method, Table 2; type: cell-based; details: Mueller-Hinton agar, 18 hours, 37° C., strain resistance: P, read-out: Minimum Inhibitory Concentration
# Experimental: as §1
# [4] = tested on: Pseudomonas aeruginosa 3210; assay: agar dilution method, Table 2; type: cell-based; details: Mueller-Hinton agar, 18 hours, 37° C., strain resistance: P, read-out: Minimum Inhibitory Concentration
# Experimental: as §1
# Proteus mirabilis 2830 = assay: agar dilution method, Table 2; type: cell-based; details: Mueller-Hinton agar, 18 hours, 37° C., strain resistance: P, read-out: Minimum Inhibitory Concentration
# Experimental: as §1
# Escherichia coli 2017 = assay: agar dilution method, Table 2; type: cell-based; details: Mueller-Hinton agar, 18 hours, 37° C., strain resistance: --, read-out: Minimum Inhibitory Concentration
# Experimental: as §1
# Klebsiella 2922 = assay: agar dilution method, Table 2; type: cell-based; details: Mueller-Hinton agar, 18 hours, 37° C., strain resistance: P, read-out: Minimum Inhibitory Concentration
# Experimental: as §1
# [5] = tested on: Pseudomonas aeruginosa 2616; assay: agar dilution method, Table 2; type: cell-based; details: Mueller-Hinton agar, 18 hours, 37° C., strain resistance: P, read-out: Minimum Inhibitory Concentration
# Experimental: as §1
# [6] = stability in aqueous solution; type: physicochemical
# [7] = pKa from pH induced shift in ultraviolet absorption spectrum; type: physicochemical; details: acidic function; 30 mM. phosphate buffer; read-out: pKa1
# Experimental: Thienamycin is an internally neutralized amphoteric substance, whose acidic function has a pKa1 = 3.08 when measured in 30 mM. phosphate buffer, taking advantage of the pH induced shift in ultraviolet absorption spectrum.
# Staph. aureus 2949 = assay: in vivo efficacy in infected mice, Table 3; parameters: species or system Staphylococcus aureus; details: 168 h, day 7 survival
# Experimental: (§2) In determining the in vivo activity, thienamycin is dissolved in and diluted with 0.15M NaCl, 0.01M sodium phosphate, pH 7.0, to provide five fourfold concentrations of drug for testing. Female white Swiss mice, averaging about 21 g. in weight, were infected intraperitoneally and subcutaneously with the test organism suspended in broth. The numbers of organisms injected were determined by standard plate-count techniques. At the time of infection, and again 6 hours later, certain of the mice were treated intraperitoneally, subcutaneously and orally with the antibiotic. Five mice were used for each concentration of drug tested. An additional two mice, not infected, were treated with the antibiotic to determine whether the amount of agent injected was toxic. Controls of five mice for each of several dilutions of the infecting culture were included in each test in order to calculate the numbers of organisms that were lethal to 50% of the infected, untreated mice (LD50). This calculation was made using survival data of the seventh day after infection, at which time the amount of drug that should protect 50% of the infected mice (ED50) also was calculated.
# (§3) All animals receiving this challenge and not treated with antibiotic died within 48 hours of the infection. The efficacy of thienamycin having a potency of 30,000 units per mg. is recorded in Table 3: […]
# β-lactamase = β-lactamase (Enterobacter cloacae, UniProt P05364); assay: exposure to β-lactamase preparations; type: biochemical; details: β-lactamase from sonic disintegration of a strain of Enterobacter cloacae
# Chain of β-lactamase (P05364 21-381): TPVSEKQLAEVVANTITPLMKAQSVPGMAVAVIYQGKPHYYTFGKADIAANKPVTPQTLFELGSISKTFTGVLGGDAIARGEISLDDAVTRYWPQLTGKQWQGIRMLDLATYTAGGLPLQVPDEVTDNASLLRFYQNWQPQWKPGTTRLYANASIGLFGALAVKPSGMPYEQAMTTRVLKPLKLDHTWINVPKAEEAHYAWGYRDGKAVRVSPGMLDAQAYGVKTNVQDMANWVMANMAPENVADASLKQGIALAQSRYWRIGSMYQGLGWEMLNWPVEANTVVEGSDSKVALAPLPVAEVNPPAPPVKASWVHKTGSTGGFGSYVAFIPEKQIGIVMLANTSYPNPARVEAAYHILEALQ
# Source text: Finally, antibiotic activity and absorbance are extinguished on exposure to preparations of β-lactamase obtained by the sonic disintegration of a strain of Enterobacter cloacae.
# E. coli 2017 = assay: in vivo efficacy in infected mice, Table 3; details: Escherichia coli, 2017, ip, 168 h, i.p. x2 (at infection and 6 hours later), No. LD50 9, day 7 survival
# Experimental: as §2, §3
# [8] = tested on: Pseudomonas aeruginosa 3210; assay: in vivo efficacy in infected mice, Table 3; details: 168 h, No. LD50 7, day 7 survival
# Experimental: as §2, §3
# solubility = type: physicochemical
# [9] = tested on: Staphylococcus aureus ATCC 6538P; assay: disc-diffusion assay of antibacterial activity (5 ml plates); type: cell-based; details: one unit = same inhibition as 1 μg. of cephalothin/ml.
# Experimental: Assays of antibacterial activity are run according to the following disc-diffusion procedure unless otherwise indicated. The assay plates are prepared in the following manner. An overnight growth of the assay organism, Staphylococcus aureus ATCC 6538P, in nutrient broth plus 0.2% yeast extract is diluted with nutrient broth plus 0.2% yeast extract to a suspension having 55% transmittance at a wavelength of 660 mμ. This suspension is added to Difco nutrient agar supplemented with 2.0 g./l. Difco yeast extract, at 47° C. to 48° C., to make a composition containing 33.2 ml. of the suspension per liter of agar. Five ml. of this suspension is poured into petri dishes of 85 mm. diameter, and these plates are chilled and held at 4° C. until used (5 day maximum).
# Samples of the antibiotic to be assayed are diluted to an appropriate concentration in phosphate buffer at pH 7. Filter-paper discs, 0.5-inch in diameter, are dipped into the test solution and placed on the surface of the assay plate; two discs for each sample are normally placed on one plate opposite to one another. The plates are incubated overnight at 37° C. and the zone of inhibition is measured as mm. diameter. The zone of inhibition measured in mm. determines relative potencies or, when compared with a purified reference standard such as cephalothin, the potency of antibiotic in units/ml. The unit of activity reported in Examples 4 through 7 is based on cephalothin standard solutions of 8, 4, 2 and 1 μg./ml. One unit is defined as the amount which calculates to produce the same inhibition as 1 μg. of cephalothin/ml. that zone of inhibition being between 16 and 21 mm. diameter.
compound,measurement,setting,value
"C[C@@H](O)[C@H]1C(=O)N2C(C(=O)O)=C(SCCN)C[C@H]12 [Thienamycin, thienamycin]",hydroxylamine-extinguishable absorbance,[1],94.5%
same,half-life,inactivation by cysteine,2.5 min
same,MIC,Serratia 2840,4.7 µg/mL
same,MIC,[2],0.02 µg/mL
same,MIC,[3],0.6 µg/mL
same,MIC,Escherichia coli 2964,0.3 µg/mL
same,MIC,Escherichia coli 2482,0.3 µg/mL
same,MIC,Klebsiella 2921,0.3 µg/mL
same,MIC,[4],2.4 µg/mL
same,MIC,Proteus mirabilis 2830,4.7 µg/mL
same,MIC,Escherichia coli 2017,0.15 µg/mL
same,MIC,Klebsiella 2922,0.3 µg/mL
same,MIC,[5],4.7 µg/mL
same,half-life,"[6]; 1 mg./ml. in 10 mM. potassium phosphate, pH 7.0, 0° C.",53300 min
same,half-life,"[6]; 1 mg./ml. in water (pH 7.0), 0° C.",28800 min
same,half-life,"[6]; 12 mg./ml. in 10 mM. phosphate buffer, 10° C.",4320 min
same,coloration on storage,"[6]; 12 mg./ml. in 10 mM. phosphate buffer, 10° C., by the 48th hour, initially pale yellow",deep amber coloration
same,half-life,"[6]; aqueous solution, pH 8.2, 30° C.",10 min
same,stability in aqueous solution,"[6]; below 1 mg./ml., phosphate buffers, pH between 6 and 7",optimum stability
same,half-life,"[6]; pH 2.0, 30 mM. phosphate buffer, room temperature",6.7 min
same,half-life,"[6]; pH 3.0, 30 mM. phosphate buffer, room temperature",30 min
same,half-life,"[6]; pH 4.0, 30 mM. phosphate buffer, room temperature",346 min
same,half-life,"[6]; pH 8.8 (borate buffer), 30° C.",5.7 min
same,half-life,"[6]; pH 12 (0.01M sodium hydroxide), 30° C.",2.1 min
same,pKa,[7],3.08
same,ED50,"Staph. aureus 2949; Staphylococcus aureus, 2949, ip, mice, i.p. x2 (at infection and 6 hours later), No. LD50 7",0.012 mg/kg
same,ED50,"Staph. aureus 2949; Staphylococcus aureus, 2949, po, mice fasted 24 hours, p.o. x2 (at infection and 6 hours later), No. LD50 13",0.67 mg/kg
same,ED50,"Staph. aureus 2949; Staphylococcus aureus, 2949, sc, mice, s.c. x2 (at infection and 6 hours later), No. LD50 7",0.08 mg/kg
same,antibiotic activity and absorbance on exposure to β-lactamase,β-lactamase,extinguished
same,ED50,E. coli 2017,0.375 mg/kg
same,ED50,"[8]; Pseudomonas aeruginosa, 3210, ip, i.p. x3 (at infection, 2 and 4 hours)",0.45 mg/kg
same,ED50,"[8]; Pseudomonas aeruginosa, 3210, sc, s.c. x3 (at infection, 2 and 4 hours)",2.05 mg/kg
same,solubility in methanol,solubility; methanol,limited solubility in methanol
same,solubility in water,solubility; water,very soluble in water
same,potency (estimated / calculated),[9]; estimated or calculated potency,"30,140 units/mg."
same,potency,[9],"30,000 units/mg."
